According to PubChem BioAssay AID2060623 (Molecular Pharmacology Branch, DTP, NCI, 2025):
Several values for one entry are separate records, joined by “and”; a condition that tells them apart may be missing. Equal entries are not always repeated.

Tested on: 227483-062-R1-J1-PDC complex spheroids with HUVEC/MSC, viability
Experiment: Anticancer human tumor 227483-062-R1-J1-PDC patient-derived pancreatic carcinoma cell line growth inhibition [CLK]
Details: for viability, T/C: stronger effect = lower value
Method in brief: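 Patient-derived tumor cells grown as complex spheroids with HUVEC endothelial cells and mesenchymal stem cells, treated with drug combinations. Concentrations descend in half-log steps from near clinical Cmax, or from 10 microM if Cmax unknown.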

[1] = curve of first compound, second compound 0.0316 µM
[2] = curve of first compound, second compound 0.1 µM
[3] = curve of first compound, second compound 0.316 µM
[4] = curve of first compound, second compound 1 µM
[5] = curve of first compound, second compound 3.16 µM
[6] = curve of first compound, second compound 10 µM
[7] = second compound 0.0316 µM, first compound 0.0316 µM
[8] = second compound 0.0316 µM, first compound 0.1 µM
[9] = second compound 0.0316 µM, first compound 0.316 µM
[10] = second compound 0.0316 µM, first compound 1 µM
[11] = second compound 0.0316 µM, first compound 3.16 µM
[12] = second compound 0.0316 µM, first compound 10 µM
[13] = second compound 0.1 µM, first compound 0.0316 µM
[14] = second compound 0.1 µM, first compound 0.1 µM
[15] = second compound 0.1 µM, first compound 0.316 µM
[16] = second compound 0.1 µM, first compound 1 µM
[17] = second compound 0.1 µM, first compound 3.16 µM
[18] = second compound 0.1 µM, first compound 10 µM
[19] = second compound 0.316 µM, first compound 0.0316 µM
[20] = second compound 0.316 µM, first compound 0.1 µM
[21] = second compound 0.316 µM, first compound 0.316 µM
[22] = second compound 0.316 µM, first compound 1 µM
[23] = second compound 0.316 µM, first compound 3.16 µM
[24] = second compound 0.316 µM, first compound 10 µM
[25] = second compound 1 µM, first compound 0.0316 µM
[26] = second compound 1 µM, first compound 0.1 µM
[27] = second compound 1 µM, first compound 0.316 µM
[28] = second compound 1 µM, first compound 1 µM
[29] = second compound 1 µM, first compound 3.16 µM
[30] = second compound 1 µM, first compound 10 µM
[31] = second compound 3.16 µM, first compound 0.0316 µM
[32] = second compound 3.16 µM, first compound 0.1 µM
[33] = second compound 3.16 µM, first compound 0.316 µM
[34] = second compound 3.16 µM, first compound 1 µM
[35] = second compound 3.16 µM, first compound 3.16 µM
[36] = second compound 3.16 µM, first compound 10 µM
[37] = second compound 10 µM, first compound 0.0316 µM
[38] = second compound 10 µM, first compound 0.1 µM
[39] = second compound 10 µM, first compound 0.316 µM
[40] = second compound 10 µM, first compound 1 µM
[41] = second compound 10 µM, first compound 3.16 µM
[42] = second compound 10 µM, first compound 10 µM
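Note: spheroids exposed to compounds for seven days before readout.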
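Throughout, for viability, T/C: percent of DMSO vehicle control luminescence as 100% viability.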

O=C(c1cc(Cc2n[nH]c(=O)c3ccccc23)ccc1F)N1CCN(C(=O)C2CC2)CC1 + CN1CCN(c2cc(C(=O)Nc3cc4cc(-c5cnn(C)c5)ccc4cn3)ccn2)CC1
IC50 [1]: > 10000 nM | IC50 [2]: > 10000 nM | IC50 [3]: < 31.6 nM | IC50 [4]: < 31.6 nM | IC50 [5]: < 31.6 nM | IC50 [6]: < 31.6 nM | viability, T/C [7]: 94.6% | viability, T/C [8]: 105% | viability, T/C [9]: 129% | viability, T/C [10]: 100% | viability, T/C [11]: 121% | viability, T/C [12]: 99.7% | viability, T/C [13]: 54.3% | viability, T/C [14]: 87.4% | viability, T/C [15]: 60.1% | viability, T/C [16]: 81.2% | viability, T/C [17]: 84.4% | viability, T/C [18]: 78.9% | viability, T/C [19]: 6.03% | viability, T/C [20]: 6.34% | viability, T/C [21]: 4.67% | viability, T/C [22]: 4.91% | viability, T/C [23]: 5.89% | viability, T/C [24]: 5.77% | viability, T/C [25]: 2.77% | viability, T/C [26]: 1.94% | viability, T/C [27]: 1.82% | viability, T/C [28]: 2.7% | viability, T/C [29]: 2.26% | viability, T/C [30]: 1.69% | viability, T/C [31]: 7.27% | viability, T/C [32]: 3.78% | viability, T/C [33]: 4.39% | viability, T/C [34]: 2.51% | viability, T/C [35]: 4.57% | viability, T/C [36]: 3.8% | viability, T/C [37]: 4.72% | viability, T/C [38]: 2.86% | viability, T/C [39]: 2.33% | viability, T/C [40]: 2.8% | viability, T/C [41]: 2.43% | viability, T/C [42]: 2.26%

CC(Nc1ccc2c(c1)OCCn1cc(N3C(=O)OCC3C(F)F)nc1-2)C(N)=O (stereo not given) + CN1CCN(c2cc(C(=O)Nc3cc4cc(-c5cnn(C)c5)ccc4cn3)ccn2)CC1
IC50 [1]: > 10000 nM | IC50 [2]: 248 nM | IC50 [3]: < 31.6 nM | IC50 [4]: < 31.6 nM | IC50 [5]: < 31.6 nM | IC50 [6]: < 31.6 nM | viability, T/C [7]: 108% | viability, T/C [8]: 81.5% | viability, T/C [9]: 70% | viability, T/C [10]: 77.8% | viability, T/C [11]: 63% | viability, T/C [12]: 66.1% | viability, T/C [13]: 72.6% | viability, T/C [14]: 60.6% | viability, T/C [15]: 47.2% | viability, T/C [16]: 45.7% | viability, T/C [17]: 48.7% | viability, T/C [18]: 44.8% | viability, T/C [19]: 7.83% | viability, T/C [20]: 6.06% | viability, T/C [21]: 6.08% | viability, T/C [22]: 6.51% | viability, T/C [23]: 6.66% | viability, T/C [24]: 5.69% | viability, T/C [25]: 3.5% | viability, T/C [26]: 1.22% | viability, T/C [27]: 1.34% | viability, T/C [28]: 1.35% | viability, T/C [29]: 2.69% | viability, T/C [30]: 2.57% | viability, T/C [31]: 5.8% | viability, T/C [32]: 3.43% | viability, T/C [33]: 2.3% | viability, T/C [34]: 2.9% | viability, T/C [35]: 2.51% | viability, T/C [36]: 2.34% | viability, T/C [37]: 2.26% | viability, T/C [38]: 2.36% | viability, T/C [39]: 2.91% | viability, T/C [40]: 1.47% | viability, T/C [41]: 1.7% | viability, T/C [42]: 3.3%

O=c1[nH]cc(F)c(=O)[nH]1
viability, T/C (compound 0.0316 µM): 103% and 83.9% | viability, T/C (compound 0.1 µM): 94.2% and 84.8% | viability, T/C (compound 0.316 µM): 97% and 96.9% | viability, T/C (compound 1 µM): 57% | viability, T/C (compound 3.16 µM): 44.8% and 48% | viability, T/C (compound 10 µM): 35.4% and 35.5% | IC50 (curve of compound): 1650 nM and 1700 nM

NC(=O)C(=Cn1cnc(-c2cc(C(F)(F)F)cc(C(F)(F)F)c2)n1)c1cncnc1
viability, T/C (compound 0.00949 µM): 78.8% and 82.5% | viability, T/C (compound 0.03 µM): 85.2% and 85.8% | viability, T/C (compound 0.0949 µM): 83.2% and 62.7% | viability, T/C (compound 0.3 µM): 87.1% and 54.1% | viability, T/C (compound 0.949 µM): 48.8% and 28% | viability, T/C (compound 3 µM): 15% and 10.8% | IC50 (curve of compound): 911 nM and 313 nM

Nc1ccn(C2OC(CO)C(O)C2(F)F)c(=O)n1 (stereo not given)
viability, T/C (compound 0.0316 µM): 83.5% and 62.6% | viability, T/C (compound 0.1 µM): 43.6% and 29.8% | viability, T/C (compound 0.316 µM): 33.7% and 28.5% | viability, T/C (compound 1 µM): 37.7% and 30.3% | viability, T/C (compound 3.16 µM): 35.4% and 25.7% | viability, T/C (compound 10 µM): 23.9% and 20.4% | IC50 (curve of compound): 83.9 nM and 49.5 nM
